Structures are written as SMILES.

One assay concerns the target T1, human APJ receptor (Homo sapiens, UniProt P35414).
T1 construct: expressed in transfected cells; host or cells: HEK293
T1 sequence (P35414 1-380): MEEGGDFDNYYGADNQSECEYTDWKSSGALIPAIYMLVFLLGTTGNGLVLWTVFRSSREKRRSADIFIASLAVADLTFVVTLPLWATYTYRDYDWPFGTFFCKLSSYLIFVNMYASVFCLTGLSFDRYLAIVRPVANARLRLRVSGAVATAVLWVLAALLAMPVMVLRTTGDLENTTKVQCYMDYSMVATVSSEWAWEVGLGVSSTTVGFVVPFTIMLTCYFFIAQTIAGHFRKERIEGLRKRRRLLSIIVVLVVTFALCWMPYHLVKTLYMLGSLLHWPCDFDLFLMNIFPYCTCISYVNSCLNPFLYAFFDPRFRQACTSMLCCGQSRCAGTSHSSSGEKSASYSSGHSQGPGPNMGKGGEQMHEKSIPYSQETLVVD
Description: Intracellular cAMP accumulation assay (APJ hcAMP, HTRF). It counts as cell-based. As to conditions: HEK293 cells stably expressing human APJ receptor; inhibition of forskolin-mediated cAMP production; Table 1; read-out: hAPJ cAMP EC50 Potency range. The protocol: Intracellular cAMP Accumulation Assay
HEK293 cells stably expressing human APJ receptor were used to assess the activity of compounds. Cultured cells were detached and resuspended in the cAMP Homogeneous Time-Resolved Fluorescence (HTRF) assay buffer (Cisbio cat; #62AM4PEJ). The assay was performed in 384-well assay plates (Perkin-Elmer; cat #6008289) according to assay protocol provided by the manufacturer. Serial dilutions of a compound together with assay buffer containing […] IBMX and 2 μM forskolin were added to each well containing 5,000 cells and incubated for 30 minutes at room temperature. Subsequently, cAMP D2 reagent was added in the lysis buffer followed by the EuK antibody (Cisbio; cat #62AM4PEJ) and incubated for 60 min. The fluorescence emission ratio was measured using fluorometer. The intracellular cAMP concentrations (compound-stimulated inhibition of forskolin-mediated cAMP production) were calculated by extrapolation from a standard curve using known cAMP concentrations. The EC50 values were obtained by fitting the data to a sigmoidal concentration-response curve with variable slope. The maximal achievable inhibition of forskolin-induced cAMP levels (Ymax) for each compound was expressed as relative percentage of inhibition attained using pyroglutamated apelin-13 ((Pyr1)apelin-13) peptide, which was set to 100%.
The examples disclosed below were tested in the APJ in vitro assays described above and were found having human APJ cyclic AMP (hcAMP) activity. The EC50 value of each compound is presented at the end of the example description.
The biological activity of the exemplified compounds of this invention determined by the assay described above is shown at the end of each example.
In general terms: Changes in cAMP serve as a functional read-out for many G protein-coupled receptors.
For the molecule `CCN(c1ccccc1)c1c(CC2CC2)nc(O)c(S(=O)(=O)c2ccc(-c3cccnc3C)cc2)c1O` [Example 050, 6-(cyclopropylmethyl)-5-(ethyl(phenyl)amino)-3-((4-(2-methylpyridin-3-yl)phenyl)sulfonyl)pyridine-2,4-diol], the EC50 was in the range of 0.01 to 10 nM.
Still for that read-out and setting: then `CCCCc1nc(O)c(S(=O)(=O)c2ccc(-c3ccncc3C)cc2)c(O)c1N(CC)c1cccc(C#N)c1` [Example 170, 3-((2-butyl-4,6-dihydroxy-5-((4-(3-methylpyridin-4-yl)phenyl)sulfonyl)pyri-din-3-yl)(ethyl)amino)benzonitrile], with 0.01 to 10 nM.
Turning to `CCCCc1nc(O)c(S(=O)(=O)c2ccc(-c3ccc(F)nc3C)cc2)c(O)c1N(C)c1ccc(OC)cc1` [Example 032, 6-butyl-3-((4-(6-fluoro-2-methylpyridin-3-yl)phenyl)sulfonyl)-5-((4-methoxyphenyl)(methyl)amino)pyridine-2,4-diol], the EC50 lay in the range of 10 to 100 nM.
Still for that read-out and setting: the result for `CCCCc1nc(O)c(S(=O)(=O)c2ccc(-c3ccnc(F)c3C)cc2)c(O)c1N1CCCCc2ccccc21` [Example 180, 6-butyl-3-((4-(2-fluoro-3-methylpyridin-4-yl)phenyl)sulfonyl)-5-(2,3,4,5-tetrahydro-1H-benzo[b]azepin-1-yl)pyridine-2,4-diol] reads 0.01 to 10 nM; that for `CCN(c1ccccc1)c1c(-c2cnc(C)s2)nc(O)c(S(=O)(=O)c2ccc(-c3cccc(C(=O)NC)c3)cc2)c1O` [Example 188, 4′-((5-(ethyl(phenyl)amino)-2,4-dihydroxy-6-(2-methylthiazol-5-yl)pyridin-3-yl)suflonyl)-N-methyl-[1,1′-biphenyl]-3-carboxamide], 0.01 to 10 nM; that for `CCCCc1nc(O)c(S(=O)(=O)c2ccc(-n3cc(C)ccc3=O)cc2)c(O)c1N(C)c1cccc(C)c1` [Example 099, 1-(4-((6-butyl-2,4-dihydroxy-5-(methyl(m-tolyl)amino)pyridin-3-yl)sulfonyl)phenyl)-5-methylpyridin-2(1H)-one], 10 to 100 nM.
Still for that read-out and setting: the result for `CCCCc1nc(O)c(S(=O)(=O)c2ccc(-c3ccnc(F)c3C)cc2)c(O)c1N1CCC(C)c2ccccc21` (stereo not shown) [Example 044, 6-butyl-3-((4-(2-fluoro-3-methylpyridin-4-yl)phenyl)sulfonyl)-5-(4-methyl-3,4-dihydroquinolin-1(2H)-yl)pyridine-2,4-diol] reads 0.01 to 10 nM.
On to `CCCCc1nc(O)c(S(=O)(=O)c2ccc(-c3ccccc3)cc2)c(O)c1N(CC)c1ccccc1` [Example 088, 3-([1,1′-biphenyl]-4-ylsulfonyl)-6-butyl-5-(ethyl(phenyl)amino)pyridine-2,4-diol], for which the EC50 was in the range of 10 to 100 nM.
On the same count and under the same terms, the result for `CCN(c1ccccc1)c1c(-c2ccn(C)n2)nc(O)c(S(=O)(=O)c2ccc(-c3ccnc(F)c3C)cc2)c1O` [Example 063, 5-(ethyl(phenyl)amino)-3-((4-(2-fluoro-3-methylpyridin-4-yl)phenyl)sulfonyl)-6-(1-methyl-1H-pyrazol-3-yl)pyridine-2,4-diol] reads 0.01 to 10 nM; that for `CCCCc1nc(O)c(S(=O)(=O)c2ccc(-c3ccnc(F)c3C)cc2)c(O)c1N(C)c1cccc(C)c1` [Example 091, 6-butyl-3-((4-(2-fluoro-3-methylpyridin-4-yl)phenyl)sulfonyl)-5-(methyl(m-tolyl)amino)pyridine-2,4-diol], 0.01 to 10 nM; that for `CCCCc1nc(O)c(S(=O)(=O)c2ccc(-c3ccccc3C(=O)N(C)C)cc2)c(O)c1N1CCCc2ccccc21` [Example 054, 4′-((6-butyl-5-(3,4-dihydroquinolin-1(2H)-yl)-2,4-dihydroxypyridin-3-yl)sulfonyl)-N,N-dimethyl-[1,1′-biphenyl]-2-carboxamide], 10 to 100 nM.
Same read-out and setting: then `CCCCc1nc(O)c(C(=O)N2CC[C@@H](c3ccccc3)C2)c(O)c1N1CCC(C)c2ccccc21` (stereo partly drawn) [Example 045, (6-butyl-2,4-dihydroxy-5-(4-methyl-3,4-dihydroquinolin-1(2H)-yl)pyridin-3-yl)((S)-3-phenylpyrrolidin-1-yl)methanone], with 0.01 to 10 nM; and `CCCCc1nc(O)c(S(=O)(=O)c2ccc(-c3ccnc(F)c3C)cc2)c(O)c1N(C)c1cccc(Cl)c1` [Example 107, 6-butyl-5-((3-chlorophenyl)(methyl)amino)-3-((4-(2-fluoro-3-methylpyridin-4-yl)phenyl)sulfonyl)pyridine-2,4-diol], with 0.01 to 10 nM.
Regarding `CCCCc1nc(O)c(S(=O)(=O)c2ccc(-c3cccnc3C)cc2)c(O)c1N(CC)c1ccccc1` [Example 079, 6-butyl-5-(ethyl(phenyl)amino)-3-((4-(2-methylpyridin-3-yl)phenyl)sulfonyl)pyridine-2,4-diol], the EC50 lay within 0.01 to 10 nM.
In the case of `CCCCc1nc(O)c(S(=O)(=O)c2ccc(-c3cccnc3C)cc2)c(O)c1N(C)c1ccc(Cl)cc1` [Example 111, 6-butyl-5-((4-chlorophenyl)(methyl)amino)-3-((4-(2-methylpyridin-3-yl)phenyl)sulfonyl)pyridine-2,4-diol], the EC50 fell in the range of 0.01 to 10 nM.
With `CCCCc1nc(O)c(S(=O)(=O)c2ccc(-c3ccnc(F)c3C)cc2)c(O)c1N1c2ccccc2CCC1C` (stereo not shown) [167-I, 6-butyl-3-((4-(2-fluoro-3-methylpyridin-4-yl)phenyl)sulfonyl)-5-(2-methyl-3,4-dihydroquinolin-1(2H)-yl)pyridine-2,4-diol], the EC50 lay in the range of 0.01 to 10 nM.
Same read-out and setting: then `CCCCc1nc(O)c(S(=O)(=O)c2ccc(-c3ccc(F)nc3C)cc2)c(O)c1N(C)c1cccc(Cl)c1` [Example 105, 6-butyl-5-((3-chlorophenyl)(methyl)amino)-3-((4-(6-fluoro-2-methylpyridin-3-yl)phenyl)sulfonyl)pyridine-2,4-diol], with 10 to 100 nM; and `CCCCc1nc(O)c(S(=O)(=O)c2ccc(-c3ccc(F)nc3C)cc2)c(O)c1N(CC)c1ccccc1` [Example 086, 6-butyl-5-(ethyl(phenyl)amino)-3-((4-(6-fluoro-2-methylpyridin-3-yl)phenyl)sulfonyl)pyridine-2,4-diol], with 0.01 to 10 nM.
On to `CCCCc1nc(O)c(S(=O)(=O)c2ccc(-n3cc(C)ccc3=O)cc2)c(O)c1N(C)c1ccc(C)cc1` [Example 098, 1-(4-((6-butyl-2,4-dihydroxy-5-(methyl(p-tolyl)amino)pyridin-3-yl)sulfonyl)phenyl)-5-methylpyridin-2(1H)-one], for which the EC50 is 0.01 to 10 nM.
Take `CCN(c1ccccc1)c1c(-c2cccc(C)c2)nc(O)c(S(=O)(=O)c2ccc(Br)cc2)c1O` [Example 131, 3-((4-bromophenyl)sulfonyl)-5-(ethyl(phenyl)amino)-6-(m-tolyl)pyridine-2,4-diol]: the EC50 was 10 to 100 nM.
In the case of `CCCCc1nc(O)c(S(=O)(=O)c2ccc(-c3cccnc3C)cc2)c(O)c1N(C)c1ccccc1` [Example 017, 6-butyl-5-(methyl(phenyl)amino)-3-((4-(2-methylpyridin-3-yl)phenyl)sulfonyl)pyridine-2,4-diol], the EC50 was in the range of 0.01 to 10 nM.

The assay is the same for the next values; noted with them: HEK293 cells stably expressing human APJ receptor; inhibition of forskolin-mediated cAMP production; Table 2; read-out: hAPJ cAMP EC50 Potency range.
For `CCN(c1ccccc1)c1c(-c2ccn(C)n2)nc(O)c(C(=O)N2CCC(c3ccccc3F)C2)c1O` (stereo not shown) [Example 205, (5-(ethyl(phenyl)amino)-2,4-dihydroxy-6-(1-methyl-1H-pyrazol-3-yl)pyridin-3-yl)(3-(2-fluorophenyl)pyrrolidin-1-yl)methanone], the EC50 fell in the range of 0.01 to 10 nM.

The assay is the same for the next values; noted with them: HEK293 cells stably expressing human APJ receptor; inhibition of forskolin-mediated cAMP production; read-out: Human APJ cAMP Potency range.
As for `CCCCc1nc(O)c(C(=O)N2CCC(c3ncc(F)cc3F)C2)c(O)c1N(C)c1ccccc1F` (stereo not shown) [Example 006, (6-butyl-5-((2-fluorophenyl)(methyl)amino)-2,4-dihydroxypyridin-3-yl)(3-(3,5-difluoropyridin-2-yl)pyrrolidin-1-yl)methanone], the EC50 lay in the range of 0.01 to 10 nM.
`CCCCc1nc(O)c(S(=O)(=O)c2ccc(C3CC3)cc2)c(O)c1N(CC)c1ccccc1` [Example 004, 6-butyl-3-((4-cyclopropylphenyl)sulfonyl)-5-(ethyl(phenyl)amino)pyridine-2,4-diol]: the EC50 fell in the range of 0.01 to 10 nM.

The assay is the same for the next values; noted with them: Human APJ cAMP Potency range, HEK293 cells stably expressing human APJ receptor; inhibition of forskolin-mediated cAMP production.
For `CCCCc1nc(O)c(C(=O)N2CC[C@@H](c3ccccc3)C2)c(O)c1N(CC)c1ccccc1` [Example 001, (S)-(6-butyl-5-(ethyl(phenyl)amino)-2,4-dihydroxypyridin-3-yl)(3-phenylpyrrolidin-1-yl)methanone], the EC50 lay within 10 to 100 nM.

These data come from US10669258B2, “3-sulfonyl-5-aminopyridine-2,4-diol APJ agonists” (BRISTOL-MYERS SQUIBB COMPANY, priority 2016, dated 2020).
